{
  "source": "patent US7517676B2",
  "about": "“Human cyclooxygenase-3 enzyme and uses thereof” (Janssen Pharmaceutica N.V., priority 2003, dated 2009)",
  "key": {"ovarian cancer": {"tested_on": "ovarian cancer", "conditions": "women who reported taking acetaminophen daily; prospective study; cited from earlier work"}, "dog COX-3": {"biological_target": "T1, dog COX-3 (Canis lupus familiaris, UniProt Q8HZR1)", "T1 sequence (Q8HZR1 1-633 isoform Q8HZR1-2)": "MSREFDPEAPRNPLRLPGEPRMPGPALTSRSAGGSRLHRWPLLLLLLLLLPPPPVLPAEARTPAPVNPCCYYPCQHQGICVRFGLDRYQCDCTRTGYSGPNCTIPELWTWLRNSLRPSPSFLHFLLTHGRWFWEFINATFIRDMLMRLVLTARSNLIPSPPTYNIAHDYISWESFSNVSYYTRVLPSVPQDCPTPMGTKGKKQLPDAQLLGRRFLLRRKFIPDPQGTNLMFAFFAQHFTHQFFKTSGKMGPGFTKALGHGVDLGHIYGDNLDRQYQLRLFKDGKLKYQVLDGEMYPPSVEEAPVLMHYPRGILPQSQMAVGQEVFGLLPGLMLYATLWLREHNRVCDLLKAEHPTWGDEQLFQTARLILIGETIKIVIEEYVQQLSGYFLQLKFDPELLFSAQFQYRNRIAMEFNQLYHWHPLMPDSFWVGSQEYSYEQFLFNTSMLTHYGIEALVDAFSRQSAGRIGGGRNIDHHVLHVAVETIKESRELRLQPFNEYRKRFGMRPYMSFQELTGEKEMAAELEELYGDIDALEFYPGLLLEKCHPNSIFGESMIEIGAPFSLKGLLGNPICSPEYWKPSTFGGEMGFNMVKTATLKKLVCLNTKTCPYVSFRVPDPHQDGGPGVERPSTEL", "conditions": "cited from earlier work"}, "human COX-3a": {"biological_target": "T2, human COX-3a (Homo sapiens, UniProt P23219)", "T2 construct": "the full length human COX-3a cDNA was subcloned into pFastBac; made in house; host or cells: Sf9 insect cells (baculovirus, pFastBac); microsomal fraction", "T2 sequence (P23219 1-630 isoform P23219-6)": "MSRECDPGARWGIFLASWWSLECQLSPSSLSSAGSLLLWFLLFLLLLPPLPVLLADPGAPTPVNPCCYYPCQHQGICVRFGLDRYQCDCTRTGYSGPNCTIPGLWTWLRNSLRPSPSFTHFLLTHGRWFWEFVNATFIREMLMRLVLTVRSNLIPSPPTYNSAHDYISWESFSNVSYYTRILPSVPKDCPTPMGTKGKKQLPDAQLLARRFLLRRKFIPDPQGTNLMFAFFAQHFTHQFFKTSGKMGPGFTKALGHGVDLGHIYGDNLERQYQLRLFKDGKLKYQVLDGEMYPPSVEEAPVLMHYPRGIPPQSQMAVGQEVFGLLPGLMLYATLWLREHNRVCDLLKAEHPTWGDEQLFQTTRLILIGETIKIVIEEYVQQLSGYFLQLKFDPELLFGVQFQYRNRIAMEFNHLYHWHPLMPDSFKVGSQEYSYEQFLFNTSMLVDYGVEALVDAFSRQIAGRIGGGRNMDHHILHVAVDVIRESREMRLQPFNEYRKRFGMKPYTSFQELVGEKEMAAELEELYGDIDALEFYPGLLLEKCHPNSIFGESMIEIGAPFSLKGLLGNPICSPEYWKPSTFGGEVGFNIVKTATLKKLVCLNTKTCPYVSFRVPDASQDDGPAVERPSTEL", "experiment": "COX activity assay: PGF2α formation from arachidonic acid by microsomes of Sf9 cells expressing hCOX-3a", "format": "biochemical", "conditions": "synthesis of PGF2α from arachidonic acid; 20 μg microsomal membrane protein, room temperature, 5 minutes, pH 8.0", "protocol": "Microsomal protein fractions were prepared from Sf9 cells infected with the hCOX-3a recombinant baculovirus. Microsomal membrane protein (20 μg) was incubated with the indicated concentration of arachidonic acid in a volume of 150 μl buffer containing 0.1 M Tris-HCl (pH=8.0), 5 mM EDTA, 2 mM phenol and 1.5 μM […]. After incubating at room temperature for 5 minutes, the reaction was terminated by the addition of 40 μl of 1 N HCl with mixing. Samples were neutralized with 40 μl of 1 N NaOH. The formation of the PGF2α product was determined using a PGF2α immunoassay kit (Assay Designs, Inc.), as directed by the manufacturer."}, "[1]": {"conditions": "substrate concentration of 5 mM"}},
  "data": [
    {"smiles": "CC(=O)Nc1ccc(O)cc1", "note": "[acetaminophen]", "values": [
      {"measurement": "lower death rate from ovarian cancer than women reporting no use", "setting": "ovarian cancer", "result": 45, "unit": "%"},
      {"measurement": "inhibition of dog COX-3 compared with murine COX-1 and -2", "setting": "dog COX-3", "result": "selectively inhibited"},
      {"measurement": "selectivity for inhibition of dog COX-3 versus murine COX-1", "setting": "dog COX-3; [1]", "result": 2, "unit": "fold"},
      {"measurement": "selectivity for inhibition of dog COX-3 versus murine COX-2", "setting": "dog COX-3; [1]", "result": 100, "unit": "fold"}
    ]},
    {"smiles": "Cc1cc(=O)n(-c2ccccc2)n1C", "note": "[antipyrine]", "values": [
      {"measurement": "inhibition of dog COX-3 compared with murine COX-1 and -2", "setting": "dog COX-3", "result": "selectively inhibited"}
    ]},
    {"smiles": "CCCCC/C=C\\C/C=C\\C/C=C\\C/C=C\\CCCC(=O)O", "note": "[arachidonic acid]", "values": [
      {"measurement": "Km", "setting": "human COX-3a", "result": 0.54, "unit": "µM"},
      {"measurement": "Vmax", "setting": "human COX-3a", "result": 3.07, "unit": "pmol/mg/min"}
    ]},
    {"smiles": "Cc1c(N(C)CS(=O)(=O)[O-])c(=O)n(-c2ccccc2)n1C.[Na+]", "note": "[dipyrone]", "values": [
      {"measurement": "inhibition of dog COX-3 compared with murine COX-1 and -2", "setting": "dog COX-3", "result": "selectively inhibited"}
    ]},
    {"smiles": "CCOc1ccc(NC(C)=O)cc1", "note": "[phenacetin]", "values": [
      {"measurement": "inhibition of dog COX-3 compared with murine COX-1 and -2", "setting": "dog COX-3", "result": "selectively inhibited"}
    ]}
  ]
}
